Laboratory results taken from the NIST ThermoML archive (doi:10.1021/acs.jced.8b00163).
Where “and” joins values, the source holds several entries; their conditions need not be identical. Equal entries are not always repeated. ± gives the expanded uncertainty stated by the source.

Details: for mass density: 100 kPa, Vibrating tube method; for mass density / viscosity: Liquid; for surface tension liquid-gas / viscosity: Surface laser light scattering (SLLS)

Question: Which mass density (283.15 K) does the source give for `CCCCCCCC(C)C` [2-methylnonane] here?
Answer: The mass density was 735.134 ± 0.9 kg/m3.

Question: And the mass density (288.15 K)?
Answer: Its mass density is 731.326 ± 0.9 kg/m3.

Question: And the mass density (293.15 K)?
Answer: Its mass density is 727.469 ± 0.89 kg/m3.

Question: What about the surface tension liquid-gas (298.15 K) of the same molecule?
Answer: Its surface tension liquid-gas is 21.45 ± 0.3 mN/m.

Question: What about the mass density (298.15 K) of the same molecule?
Answer: The mass density was 723.54 ± 2.2 kg/m3 and 723.632 ± 0.89 kg/m3.

Question: And the viscosity (298.15 K)?
Answer: The viscosity was 0.8268 ± 0.028 mPa·s.

Question: What about the mass density (303.15 K) of the same molecule?
Answer: The mass density was 719.96 ± 0.88 kg/m3.

Question: What about the mass density (308.15 K) of the same molecule?
Answer: The mass density was 716.109 ± 0.88 kg/m3.

Question: And the mass density (313.15 K)?
Answer: The mass density was 712.275 ± 0.87 kg/m3.

Question: What about the mass density (318.15 K) of the same molecule?
Answer: Its mass density is 708.49 ± 0.87 kg/m3.

Question: What about the surface tension liquid-gas (323.15 K) of the same molecule?
Answer: The surface tension liquid-gas was 19.65 ± 0.21 mN/m.

Question: What about the mass density (323.15 K) of the same molecule?
Answer: Its mass density is 704.14 ± 2.2 kg/m3 and 704.628 ± 0.86 kg/m3.

Question: And the viscosity (323.15 K)?
Answer: The viscosity was 0.6035 ± 0.023 mPa·s.

Question: What about the mass density (328.15 K) of the same molecule?
Answer: Its mass density is 700.722 ± 0.86 kg/m3.

Question: What about the mass density (333.15 K) of the same molecule?
Answer: Its mass density is 696.794 ± 0.85 kg/m3.

Question: And the mass density (338.15 K)?
Answer: The mass density was 692.852 ± 0.85 kg/m3.

Question: What about the mass density (343.15 K) of the same molecule?
Answer: The mass density was 688.883 ± 0.84 kg/m3.

Question: And the surface tension liquid-gas (348.15 K)?
Answer: The surface tension liquid-gas was 17.76 ± 0.19 mN/m.

Question: And the mass density (348.15 K)?
Answer: The mass density was 684.896 ± 0.84 kg/m3 and 684.45 ± 2.1 kg/m3.

Question: And the viscosity (348.15 K)?
Answer: The viscosity was 0.4629 ± 0.019 mPa·s.

Question: And the mass density (353.15 K)?
Answer: Its mass density is 680.89 ± 0.83 kg/m3.

Question: What about the mass density (358.15 K) of the same molecule?
Answer: Its mass density is 676.827 ± 0.83 kg/m3.

Question: What about the mass density (363.15 K) of the same molecule?
Answer: The mass density was 672.811 ± 0.83 kg/m3.

Question: What about the surface tension liquid-gas (373.15 K) of the same molecule?
Answer: The surface tension liquid-gas was 15.75 ± 0.19 mN/m.

Question: What about the mass density (373.15 K) of the same molecule?
Answer: The mass density was 664.34 ± 2 kg/m3.

Question: What about the viscosity (373.15 K) of the same molecule?
Answer: Its viscosity is 0.3623 ± 0.017 mPa·s.

Question: And the surface tension liquid-gas (398.15 K)?
Answer: The surface tension liquid-gas was 13.64 ± 0.19 mN/m.

Question: What about the mass density (398.15 K) of the same molecule?
Answer: The mass density was 643.46 ± 2 kg/m3.

Question: And the viscosity (398.15 K)?
Answer: The viscosity was 0.2897 ± 0.015 mPa·s.

Question: And the surface tension liquid-gas (423.15 K)?
Answer: The surface tension liquid-gas was 11.72 ± 0.21 mN/m.

Question: And the mass density (423.15 K)?
Answer: Its mass density is 621.59 ± 1.9 kg/m3.

Question: And the viscosity (423.15 K)?
Answer: The viscosity was 0.2365 ± 0.013 mPa·s.

Question: And the surface tension liquid-gas (448.15 K)?
Answer: Its surface tension liquid-gas is 9.9 ± 0.17 mN/m.

Question: What about the viscosity (448.15 K) of the same molecule?
Answer: The viscosity was 0.1989 ± 0.013 mPa·s.

Question: For `CCCCCC(C)CCC` (stereo not drawn) [4-methylnonane], which mass density (283.15 K) is on record?
Answer: Its mass density is 739.362 ± 0.91 kg/m3.

Question: What about the mass density (288.15 K) of the same molecule?
Answer: The mass density was 735.555 ± 0.9 kg/m3.

Question: What about the mass density (293.15 K) of the same molecule?
Answer: Its mass density is 731.743 ± 0.9 kg/m3.

Question: What about the surface tension liquid-gas (298.15 K) of the same molecule?
Answer: The surface tension liquid-gas was 21.67 ± 0.28 mN/m.

Question: What about the mass density (298.15 K) of the same molecule?
Answer: The mass density was 728.35 ± 2.2 kg/m3 and 727.929 ± 0.89 kg/m3.

Question: And the viscosity (298.15 K)?
Answer: The viscosity was 0.7638 ± 0.027 mPa·s.

Question: And the mass density (303.15 K)?
Answer: Its mass density is 724.098 ± 0.89 kg/m3.

Question: What about the mass density (308.15 K) of the same molecule?
Answer: Its mass density is 720.253 ± 0.88 kg/m3.

Question: What about the mass density (313.15 K) of the same molecule?
Answer: Its mass density is 716.396 ± 0.88 kg/m3.

Question: What about the mass density (318.15 K) of the same molecule?
Answer: The mass density was 712.527 ± 0.87 kg/m3.

Question: What about the surface tension liquid-gas (323.15 K) of the same molecule?
Answer: The surface tension liquid-gas was 20.06 ± 0.26 mN/m.

Question: And the mass density (323.15 K)?
Answer: Its mass density is 708.82 ± 2.2 kg/m3 and 708.634 ± 0.87 kg/m3.

Question: And the viscosity (323.15 K)?
Answer: The viscosity was 0.5533 ± 0.021 mPa·s.

Question: What about the mass density (328.15 K) of the same molecule?
Answer: The mass density was 704.729 ± 0.86 kg/m3.

Question: And the mass density (333.15 K)?
Answer: The mass density was 700.808 ± 0.86 kg/m3.

Question: And the mass density (338.15 K)?
Answer: Its mass density is 696.873 ± 0.85 kg/m3.

Question: What about the mass density (343.15 K) of the same molecule?
Answer: The mass density was 692.918 ± 0.85 kg/m3.

Question: What about the surface tension liquid-gas (348.15 K) of the same molecule?
Answer: Its surface tension liquid-gas is 17.93 ± 0.19 mN/m.

Question: And the mass density (348.15 K)?
Answer: Its mass density is 688.94 ± 0.84 kg/m3 and 689 ± 2.1 kg/m3.

Question: What about the viscosity (348.15 K) of the same molecule?
Answer: The viscosity was 0.4161 ± 0.018 mPa·s.

Question: What about the mass density (353.15 K) of the same molecule?
Answer: Its mass density is 684.943 ± 0.84 kg/m3.

Question: And the mass density (358.15 K)?
Answer: The mass density was 680.922 ± 0.83 kg/m3.

Question: What about the mass density (363.15 K) of the same molecule?
Answer: The mass density was 676.877 ± 0.83 kg/m3.

Question: And the surface tension liquid-gas (373.15 K)?
Answer: The surface tension liquid-gas was 15.92 ± 0.2 mN/m.

Question: And the mass density (373.15 K)?
Answer: The mass density was 668.81 ± 2.1 kg/m3.

Question: What about the viscosity (373.15 K) of the same molecule?
Answer: Its viscosity is 0.3279 ± 0.016 mPa·s.

Question: What about the surface tension liquid-gas (398.15 K) of the same molecule?
Answer: Its surface tension liquid-gas is 13.77 ± 0.27 mN/m.

Question: What about the mass density (398.15 K) of the same molecule?
Answer: Its mass density is 647.86 ± 2 kg/m3.

Question: And the viscosity (398.15 K)?
Answer: The viscosity was 0.2644 ± 0.014 mPa·s.

Question: What about the surface tension liquid-gas (423.15 K) of the same molecule?
Answer: Its surface tension liquid-gas is 11.89 ± 0.13 mN/m.

Question: What about the mass density (423.15 K) of the same molecule?
Answer: The mass density was 626 ± 1.9 kg/m3.

Question: What about the viscosity (423.15 K) of the same molecule?
Answer: Its viscosity is 0.2168 ± 0.013 mPa·s.

Question: What about the surface tension liquid-gas (448.15 K) of the same molecule?
Answer: Its surface tension liquid-gas is 9.95 ± 0.14 mN/m.

Question: And the viscosity (448.15 K)?
Answer: Its viscosity is 0.1801 ± 0.012 mPa·s.
